This passage reports IC50 results from patent publication US12637472B2, “Benzimidazole heteroatom-containing spiro compound and medicinal use thereof” (Changzhi University, priority 2023, dated 2026).

What all share (type): cell-based
The test system of test [1] is human gastric adenocarcinoma cells AGS. Briefly: MTT in vitro cell proliferation inhibition experiment, AGS. The settings on record: MTT method, 48 h contact between compound and cell, read-out: Antiproliferative activity (IC50, μM) AGS. As for the experimental part:
(§1) Human liver tumor cells HepG2, human colon cancer cells HCT116, and human gastric adenocarcinoma cells AGS were purchased from the Institute of Basic Medical Sciences, Chinese Academy of Medical Sciences. The cells each were preserved and passaged in the laboratory of the present disclosure according to respective cultivation data. Each cell line was routinely inoculated in a 50 mL cell culture flask, and cultivated with a 10% fetal bovine serum-containing DMEM/IRP-1640 medium at 37° C., 5% CO2, and 100% humidity, where the medium was changed daily. When growing to a confluency of 80% to 90%, cells were digested with a mixture of trypsin and EDTA and passaged according to 1:3.
(§2) An in vitro cell activity and proliferation inhibition experiment was conducted by an MTT method to investigate an impact of a target compound on a survival activity of each cell. Cells at a logarithmic growth phase were inoculated at 5×10^3 cells (100 μL)/well in a 96-well culture plate and cultivated for 24 h, and then compound solutions with different concentrations prepared in advance were added (100 μL) to the plate. At least 3 replicate wells were set for each concentration. A solvent control group without a compound and a blank control group without a cell were set. Edge wells each were filled with 200 μL of sterilized water. […] A liquid in each well was completely removed carefully, 150 μL of DMSO was added to each well, the plate was gently shaken on a microshaker for 10 min to make a purple crystal fully dissolved, and then an absorbance value was determined at 570 nm by a microplate reader. With a cell viability of the solvent control group without a compound as 100%, a cell survival rate was calculated as follows: a cell survival rate=(an absorbance value of a compound group−an absorbance value of the blank control group)/(an absorbance value of the control group−an absorbance value of the blank control group)×100%. A half-maximal inhibitory concentration (IC50) of a compound for a cell was calculated by the Graphpad Prism 5 software.
For orientation: Tetrazolium dyes change colour on reduction, which living cells bring about.

Test [2] relates to human colon cancer cells HCT116. The test is described as follows: MTT in vitro cell proliferation inhibition experiment, HCT116. The following applies: 48 h contact between compound and cell, read-out: Antiproliferative activity (IC50, μM) HCT116. As for the experimental part: as §1, §2
In test [3] the test system is Human liver tumor cells HepG2. The test is described as follows: MTT in vitro cell proliferation inhibition experiment, HepG2. The settings on record: MTT method, 48 h contact between compound and cell, read-out: Antiproliferative activity (IC50, μM) HepG2. As to the method: as §1, §2
[4] abbreviates: Homo sapiens, HCT-116, MTT method.

Structures are written as SMILES. Where two headings read alike, the source gives them in different places.

On to `Cc1ccc(C2C(c3c[nH]c4ccccc34)NC3(C(=O)c4ccccc4C3=O)C2C(=O)c2nc3ccccc3[nH]2)cc1` (stereo not drawn) [Compound 44, 3-(1H-benzimidazol-2-carbonyl)-5-(1H-indol-3-yl)-4-p-tolylspiro[inden-2,2′-pyrrolidine]-1,3-dione], for which the half-maximal inhibitory concentration (IC50) – broadly, the concentration at which inhibition is half-maximal – in test [1] (Homo sapiens) was found to be 6.02 µM; in test [2] (setting [4]) it was 5.34 µM; in test [3] (Homo sapiens), 5.67 µM.
For `CCOc1ccc(C2C(c3c[nH]c4ccccc34)NC3(C(=O)c4ccccc4C3=O)C2C(=O)c2nc3ccccc3[nH]2)cc1OCC` (stereo not drawn) [Compound 45, 3-(1H-benzimidazol-2-carbonyl)-3,4-diethoxyphenyl-5-(1H-indol-3-yl)spiro[inden-2,2′-pyrrolidine]-1,3-dione] the same measures were more than 100 µM, 56.4 µM and more than 100 µM.
`O=C(c1nc2ccccc2[nH]1)C1C(c2cccc(Br)c2)C(c2c[nH]c3ccccc23)NC12C(=O)c1ccccc1C2=O` (stereo not drawn) [Compound 46, 3-(1H-benzimidazol-2-carbonyl)-4-(3-bromophenyl)-5-(1H-indol-3-yl)spiro[inden-2,2′-pyrrolidine]-1,3-dione]: the figures for the IC50 in test [1] (Homo sapiens), in test [2] (setting [4]) and in test [3] (Homo sapiens) were 21.4 µM, 18.4 µM and 12.2 µM, respectively.
On to `CCOc1ccc(C2C(c3c[nH]c4ccccc34)NC3(C(=O)c4ccccc4C3=O)C2C(=O)c2nc3ccccc3[nH]2)cc1` (stereo not drawn) [Compound 47], for which the IC50 in test [1] (Homo sapiens) is 38 µM; in test [2] (setting [4]) it was 39.8 µM; in test [3] (Homo sapiens), 34.6 µM.
For `O=C(c1nc2ccccc2[nH]1)C1C(c2ccc(Br)cc2)C(c2c[nH]c3ccccc23)NC12C(=O)c1ccccc1C2=O` (stereo not drawn) [Compound 48] the same measures were 44.2 µM, 37.8 µM and 40.2 µM.
`COc1ccc(C2=N[C@@H](c3ccc(Cl)cc3)[C@@H](c3ccc(Cl)cc3)N2C(=O)N2CCNC(=O)C2)c(OC(C)C)c1` [Nutlin-3a, reference compound]: the values for the IC50 in test [1], in test [2] (MTT method) and in test [3] were 21.4 µM, 21.7 µM and 11 µM, respectively.
